# From paper PMC7167990, “Therapeutic Effects of Atranorin towards the Proliferation of Babesia and Theileria Parasites” (Pathogens, 2020)
# Several values for one entry are separate records, joined by “and”; a condition that tells them apart may be missing. Equal entries are not always repeated. Where two headings read alike, the source gives them in different places.
# Experiments:
# [1] = test system: HFFs; assay: Cytotoxicity assay (CCK-8 cell viability); format: cell-based, human; details: for EC50: Homo sapiens, HFFs, 24 h, CCK-8
# Description: (§1) Cultures of human foreskin fibroblast (HFF; HFF-1 ATCC® SCRC-1041™), Madin–Darby bovine kidney (MDBK; ECACC) and mouse embryonic fibroblast (NIH/3T3; ATCC® CRL-1658™) cells were retrieved from −80 °C stock and cultured continuously at 37 °C under atmosphere 5% CO2 in our laboratory. The NIH/3T3 and HFFs cells were maintained in Dulbecco Modified Eagle’s Medium (DMEM; Gibco, Grand Island, NY, USA), while MDBK cell line grown in Minimum Essential Medium Eagle (MEM; Gibco). Each medium was treated with 0.5% penicillin/streptomycin (Gibco), 10% inactivated fetal bovine serum and 2 mM glutamine. Every 72 to 96 h, the medium was replaced, and once 80% confluence was reached, the cell collection was performed by sub-culture protocol. To confirm the absence of mycoplasma contamination, 4,6-diamidino-2-phenylindole dihydrochloride stain (Sigma-Aldrich) was used.
# (§2) The cell viability test was conducted in a 96-well plate as described elsewhere. Briefly, an aliquot of (100 µL) cells was implanted at a concentration of 5 × 10^4 cells/mL in DMEM or MEM with fetal bovine serum and incubated overnight under atmosphere 5% CO2 at 37 °C for attachment. Using two-fold dilutions, aliquots (10 µL) of drugs were added in triplicate per well to attain final concentrations of 50 to 1000 µM and further incubated for 24 h. The positive control wells containing cells mixed with the medium in 0.4% DMSO, whereas the negative control wells containing culture medium only. After a 24-h incubation, Cell Counting Kits-8 (CCK-8, 10 µL) was added to each well and then plate incubation was conducted for an additional 3 h and a microplate reader was used to assess the absorbance at 450 nm.
# [2] = test system: B. divergens; assay: In vitro growth inhibition, Babesia fluorescent (SYBR Green I) assay; format: cell-based; details: 96 h, 4 days culture, mean of triplicate experiments
# Description: (§3) Babesia parasite was incubated and maintained at 37 °C in a humidifying chamber under 5% CO2, 5% O2, and 90% N2 atmosphere using a microaerophilic stationary-phase culture for conducting the in vitro experiment. Briefly, Germany strain Babesia divergens was cultured in cattle RBCs in Roswell Park Memorial Institute 1640 (RPMI 1640; Sigma-Aldrich, St. Louis, MO, USA) medium replenished with 40% cattle serum, while culture medium 199 (M199; Sigma-Aldrich) was utilized for the Argentina strain B. bigemina and Texas strain B. bovis, and T. equi USDA strain cultured in cattle RBCs supplemented with 40% cattle serum and horse RBCs maintained in hypoxanthine (MP Biomedicals, Santa Ana, CA, USA; final concentration 13.6 μg/mL) and 40% horse serum, respectively. GIT medium complemented with 40% horse serum was used as a growth medium for the USDA strain of B. caballi cultured in horse RBCs. To ensure free-bacterial contamination, amphotericin B (0.15 μg/mL) (Sigma-Aldrich), streptomycin (60 U/mL) and penicillin G (60 U/mL) were added to all medium.
# (§4) The Babesia fluorescent assay was carried out on the in vitro culture as previously reported elsewhere to assess the growth of the inhibitory effectiveness of ATR and the combination treatment with DA, CF, and AV. Briefly, in three separate trials, using two-fold dilution, different concentrations of ATR, DA, CF, and AV were prepared in the culture medium and added in 96-well plates in triplicate with 1% parasitemia for T. equi, B. divergens and B. caballi at 5% HCT, while for B. bigemina and B. bovis using 2.5% HCT. The drug combined efficacy was conducted at the same time with the single-treatment assay in accordance with the Chou–Talalay method. […] On day four of culture, an aliquot (100 µL) of lysis buffer mixed with 0.2μL/mL SG1 was added per well; subsequently, it was covered with aluminum foil to prevent exposure to light. After incubation for 6-h at 37 °C, fluorescence readings were acquired on a spectrofluorimeter (Fluoroskan Ascent, Thermo Fisher Scientific, Oceanside, CA, USA) with a 485 nm excitation wavelength and a 518 nm emission wavelength.
# (§5) The IC50 values of ATR, DA, CF, and AV were established from the in vitro growth inhibition by nonlinear regression curve fit on a GraphPad Prism (GraphPad Software Inc., San Diego, CA, USA). […] The significant variations (p < 0.05) among group mean values on parasitemia and one-way ANOVA Tukey’s test in GraphPad Prism version 5.0 was used to analyze hematology profiles in mice infected with B. microti.
# [3] = test system: B. bovis; assay: as above; format: cell-based; details: Bos taurus, 96 h, 4 days culture, mean of triplicate experiments
# Description: as §3, §4, §5
# [4] = test system: B. caballi; assay: as above; format: cell-based; details: Babesia caballi, 96 h, 4 days culture, mean of triplicate experiments
# Description: as §3, §4, §5
# [5] = test system: B. bigemina; assay: as above; format: cell-based; details: 96 h, 4 days culture, mean of triplicate experiments
# Description: as §3, §4, §5
# [6] = test system: T. equi; assay: as above; format: cell-based; details: 96 h, 4 days culture, mean of triplicate experiments
# Description: as §3, §4, §5
# [7] = test system: MDBK cells; assay: Cytotoxicity assay (CCK-8 cell viability); format: cell-based, bovine; details: for EC50: Bos taurus, MDBK cells, 24 h, CCK-8
# Description: as §1, §2
# [8] = Hematology parameters (HGB, HCT, RBCs) in B. microti-infected treated mice; format: in vivo, BALB/c mice; set-up: HGB Mean: unit not given beside the values; RBCs Mean: unit not given here; details: DA 25, AV 20, ATR 25, ATR 12.5+DA 12.5, ATR 12.5+AV 10 mg/kg BW, days 4-8 p.i.
# [9] = test system: B. microti; details: for peak parasitemia level: peak on day 10; for peak parasitemia level / first day on which parasitemia was not detected by microscopy: B. microti-infected BALB/c mice; for first day on which parasitemia was not detected by microscopy: DA 25, AV 20, ATR 25, ATR 12.5+DA 12.5, ATR 12.5+AV 10 mg/kg BW
# [10] = ATR 25 mg/kg i.p., days 4-8 p.i.
structure (smiles),measurement,setting,value
"COC(=O)c1c(C)cc(OC(=O)c2c(C)cc(O)c(C=O)c2O)c(C)c1O [ATR, Atranorin]",Selective Index HFFs,[1]; EC50 HFFs / IC50 B. bigemina,11.6
same,Selective Index HFFs,[1]; EC50 HFFs / IC50 B. bovis,7.6
same,Selective Index HFFs,[1]; EC50 HFFs / IC50 B. caballi,16.1
same,Selective Index HFFs,[1]; EC50 HFFs / IC50 B. divergens,16.6
same,Selective Index HFFs,[1]; EC50 HFFs / IC50 T. equi,10.6
same,EC50,[1],750 ± 15 µM
same,IC50,[2],45.2 ± 5.9 µM
same,IC50,[3],98.4 ± 4.2 µM
same,IC50,[4],46.6 ± 2.5 µM
same,IC50,[5],64.5 ± 3.9 µM
same,IC50,[6],71.3 ± 2.7 µM
same,EC50,[7],775 ± 16 µM
same,Selective Index MDBK,[7]; EC50 MDBK / IC50 B. bigemina,12.0
same,Selective Index MDBK,[7]; EC50 MDBK / IC50 B. bovis,7.9
same,Selective Index MDBK,[7]; EC50 MDBK / IC50 B. caballi,16.6
same,Selective Index MDBK,[7]; EC50 MDBK / IC50 B. divergens,17.1
same,Selective Index MDBK,[7]; EC50 MDBK / IC50 T. equi,10.6 and 10.9
same,HCT Mean,[8]; day 0,46.575%
same,HGB Mean,[8]; day 0,14.8
same,RBCs Mean,[8]; day 0,942.625
same,HCT Mean,[8]; day 4,44.4%
same,HGB Mean,[8]; day 4,13.64
same,RBCs Mean,[8]; day 4,928
same,HCT Mean,[8]; day 8,38%
same,HGB Mean,[8]; day 8,10
same,RBCs Mean,[8]; day 8,610
same,HCT Mean,[8]; day 12,28.925%
same,HGB Mean,[8]; day 12,10.05
same,RBCs Mean,[8]; day 12,557
same,HCT Mean,[8]; day 16,36.65%
same,HGB Mean,[8]; day 16,11.425
same,RBCs Mean,[8]; day 16,637.75
same,HCT Mean,[8]; day 20,39.5%
same,HGB Mean,[8]; day 20,11.95
same,RBCs Mean,[8]; day 20,679.75
same,HCT Mean,[8]; day 24,40.2%
same,HGB Mean,[8]; day 24,12.725
same,RBCs Mean,[8]; day 24,830
same,HCT Mean,[8]; day 28,43.2%
same,HGB Mean,[8]; day 28,13.2
same,RBCs Mean,[8]; day 28,898
same,HCT Mean,[8]; day 32,45.2%
same,HGB Mean,[8]; day 32,14.8
same,RBCs Mean,[8]; day 32,942.625
same,HCT Mean,[8]; day 36,47.2%
same,HGB Mean,[8]; day 36,14.99
same,RBCs Mean,[8]; day 36,982.625
same,inhibition of B. microti multiplication in mice,[9]; [10],68.17%
same,peak parasitemia level,[9]; [10],19.92%
same,first day on which parasitemia was not detected by microscopy,[9]; days 4-8 p.i.,26 day p.i.
same,toxic signs in mice due to treatment,"[9]; mouse, in vivo",no obvious toxic signs or promoted anemia
"O=C1C(O)=C([C@H]2CC[C@H](c3ccc(Cl)cc3)CC2)C(=O)c2ccccc21 [AV, atovaquone]",Selective Index HFFs,[1]; EC50 HFFs / IC50 B. bigemina,˃142.7
same,Selective Index HFFs,[1]; EC50 HFFs / IC50 B. bovis,˃2564
same,Selective Index HFFs,[1]; EC50 HFFs / IC50 B. caballi,˃980.4
same,Selective Index HFFs,[1]; EC50 HFFs / IC50 B. divergens,˃2631
same,Selective Index HFFs,[1]; EC50 HFFs / IC50 T. equi,˃1052
same,EC50,[1],> 100 µM
same,IC50,[2],0.04 µM
same,IC50,[3],0.04 µM
same,IC50,[4],0.1 ± 0.01 µM
same,IC50,[5],0.7 ± 0.04 µM
same,IC50,[6],0.09 ± 0.06 µM
same,EC50,[7],> 100 µM
same,Selective Index MDBK,[7]; EC50 MDBK / IC50 B. bigemina,˃142.7
same,Selective Index MDBK,[7]; EC50 MDBK / IC50 B. bovis,˃2564
same,Selective Index MDBK,[7]; EC50 MDBK / IC50 B. caballi,˃980.4
same,Selective Index MDBK,[7]; EC50 MDBK / IC50 B. divergens,˃2631
same,Selective Index MDBK,[7]; EC50 MDBK / IC50 T. equi,˃1052
same,HCT Mean,[8]; day 0,47.48%
same,HGB Mean,[8]; day 0,14.44
same,RBCs Mean,[8]; day 0,1060.62
same,HCT Mean,[8]; day 4,45%
same,HGB Mean,[8]; day 4,13.64
same,RBCs Mean,[8]; day 4,984.75
same,HCT Mean,[8]; day 8,44%
same,HGB Mean,[8]; day 8,14.34
same,RBCs Mean,[8]; day 8,878
same,HCT Mean,[8]; day 12,40%
same,HGB Mean,[8]; day 12,12.6
same,RBCs Mean,[8]; day 12,850
same,HCT Mean,[8]; day 16,43%
same,HGB Mean,[8]; day 16,13.96
same,RBCs Mean,[8]; day 16,830.25
same,HCT Mean,[8]; day 20,45%
same,HGB Mean,[8]; day 20,14.92
same,RBCs Mean,[8]; day 20,844
same,HCT Mean,[8]; day 24,46%
same,HGB Mean,[8]; day 24,15.4
same,RBCs Mean,[8]; day 24,850
same,HCT Mean,[8]; day 28,48%
same,HGB Mean,[8]; day 28,15.64
same,RBCs Mean,[8]; day 28,984.75
same,HCT Mean,[8]; day 32,50%
same,HGB Mean,[8]; day 32,16
same,RBCs Mean,[8]; day 32,1000.62
same,HCT Mean,[8]; day 36,51%
same,HGB Mean,[8]; day 36,16.44
same,RBCs Mean,[8]; day 36,1060.62
same,peak parasitemia level,"[9]; AV at 20 mg/kg, days 4-8 p.i.",10.99%
same,first day on which parasitemia was not detected by microscopy,[9]; days 4-8 p.i.,18 day p.i.
